Patent US9518038B2, “Condensation product of theanine derivative and carboxylic acid coumarin derivative, its intermediate, preparation method and use thereof” (SHANDONG YINGDONG YINGHAO BIOTECHNOLOGY, INC., priority 2012, dated 2016)
Like-named read-outs stand apart in the source and are kept apart here.

Legend:
[1] = system: human lymphoma cells U937; experiment: MTT growth inhibition, U937 cells; format: cell-based; details: read-out: Drug concentration (IC50) at which 50% cancer cells survived
Description: (§1) The procedure was as follows:
(§2) (3) The 96-well plate was taken out at 48 h and 72 h after dosing, the original culture medium was carefully removed by suction, 100 μl of serum-free DMEM culture medium and 10 μl of MTT (5 mg/mL) solution were added in each well. The plate was continuously cultured for another 4 h and then the culture was terminated;
(§3) (4) The supernatant in the wells was carefully removed by suction, each well was added with 150 μl of DMSO and shaked at room temperature for 10-15 min to fully dissolve crystals.
(§4) (5) Colorimetric analysis: the wavelength was selected as 570 nm, the light absorbance (A value) of each well was determined on the microplate reader and the results were recorded; the experiment was repeated for three times;
(§5) (6) the experimental results were calculated according to the following formula: relative survival rate=(A value of each experimental group/A value of cell control group)×100%
(§6) IC50 of the detected component was calculated by using a regression equation.

[2] = system: human breast cancer cells MDA-MB231 xenograft; experiment: In-vivo growth of MDA-MB231 xenografts in nude mice; set-up: species or system BALB/c nude mice; details: MB-231 xenograft; positive controls: cisplatin 1.5 mg/kg/day, cyclophosphamide 60 mg/kg/2 day, endostar 8 mg/kg
Description: (§7) RPMI1640 and DMEM culture solutions: Hyclone Company; inactivated fetal bovine serum: Hyclone Company, preserved at −20° C.; trypsin: Amersco Company; and 0.4% trypan blue: Sigma Company;
(§8) (3) Observation of growth of tumors in nude mice: the activities (including food intake, traits of urine and stool, mental state and the like) of the nude mice and the tumor growth time and growth situation of the transplanted tumors were observed every day, the body weight and the size of the tumors were measured once every 2-3 days. The long diameter a and the short diameter b (mm) of each tumor were measured by a vernier caliper to calculate the volume, wherein the volume V=π1/2·ab^2 (mm^3);
(§9) (4) sacrifice of animals: the mice were anesthetized and photoed after treatment experiments; the nude mice were sacrificed by breaking neck, the tumor tissues were stripped under sterile conditions and the weight of the tumors was weighed; and the effects of the drugs on pathology and toxicity of the various organs and tissues were detected.

[3] = system: human brain tumor cells Daoy; experiment: MTT growth inhibition, Daoy cells; format: cell-based; details: 72 h after treatment, read-out: Drug concentration (IC50) at which 50% cancer cells survived
From the text: (§10) Cell lines and cell culture: human lung cancer cells A549 and H460, human breast cancer cells MCF-7 and MDA-MB-231, human gastric cancer cells BGC-823, human prostate cancer cells PC-3, human chronic leukemia cells K562, human lymphoma cells U937, human liver cancer cells SMMC7721 and HepG2, human colon cancer cells HT29, human pancreatic cancer cells PANC-1 and BxPC3, human cervical cancer Hela cell lines, human brain tumor cells Daoy, human neuroma cells D54 and human oral epidermoid cancer cells KBV200 line with strong drug resistance, mouse melanoma cells B16, and highly metastatic Lewis lung cancer cell lines were purchased from American Type Culture Collection of the U.S. These cells were cultured with DMEM and RPMI-1640 culture solutions separately.
as §1
(§11) (1) 0.25% trypsin was used to digest cancer cells in a logarithmic growth phase to prepare a single-cell suspension, the concentration of cells was adjusted to 5×10^4/mL, and the adjusted suspension was inoculated into a 96-well culture plate with 100 μl per well;
(§12) (2) The culture plate was transferred into a 37° C. incubator with a saturated humidity and 5% of CO2 and cultured for 24 h; the compounds and the intermediates thereof obtained in embodiments 1-7 and the compound as represented by formula (IIIa) or the positive control anti-cancer drug with the concentration of 1-1000 μM/L were added to enable the final concentration to be 0.1-1500 μM/L. Control wells (only added with 200 μl of cell suspension) and drug-free blank control wells (containing the solvent of 0.01% DMSO) were set, each group included 8 wells, and the plate was placed into the 37° C. incubator with saturated humidity and 5% of CO2 for culturing;
as §2, §3, §4, §5
(§13) Calculation of median-effect concentration (IC50, namely the drug concentration at which the inhibition rate is 50%, also known as half inhibitory concentration):
as §6

[4] = system: human lung cancer cells A549 xenograft; experiment: In-vivo growth of A549 xenografts in nude mice; set-up: species or system BALB/c nude mice; details: positive controls: cisplatin 1.5 mg/kg/day, cyclophosphamide 60 mg/kg/2 day, endostar 8 mg/kg
Description: as §7, §8, §9

[5] = system: human liver cancer cells SMMC7721 xenograft; experiment: In-vivo growth of SMMC7721 xenografts in nude mice; set-up: species or system BALB/c nude mice; details: S-7721 xenograft; positive controls: cisplatin 1.5 mg/kg/day, cyclophosphamide 60 mg/kg/2 day, endostar 8 mg/kg
Description: as §7, §8, §9

mouse melanoma cells B16 = experiment: MTT growth inhibition, B16 cells; format: cell-based; details: 72 h after treatment, read-out: Drug concentration (IC50) at which 50% cancer cells survived
From the text: as §10, §1, §11, §12, §2, §3, §4, §5, §13, §6

[6] = system: human cervical cancer Hela cell lines; experiment: MTT growth inhibition, Hela cells; format: cell-based; details: 72 h after treatment, read-out: Drug concentration (IC50) at which 50% cancer cells survived
From the text: as §10, §1, §11, §12, §2, §3, §4, §5, §13, §6

[7] = system: human cervical cancer cells Hela xenograft; experiment: In-vivo growth of Hela xenografts in nude mice; set-up: species or system BALB/c nude mice; details: positive controls: cisplatin 1.5 mg/kg/day, endostar 8 mg/kg
Description: as §7, §8, §9

[8] = system: human breast cancer cells MCF-7 xenograft; experiment: In-vivo growth of MCF-7 xenografts in nude mice; set-up: species or system BALB/c nude mice; details: positive controls: cisplatin 1.5 mg/kg/day, cyclophosphamide 60 mg/kg/2 day, endostar 8 mg/kg
Description: as §7, §8, §9

[9] = system: human pancreatic cancer cells PANC-1 xenograft; experiment: In-vivo growth of PANC-1 xenografts in nude mice; set-up: species or system BALB/c nude mice; details: positive controls: cisplatin 1.5 mg/kg/day, endostar 8 mg/kg
Description: as §7, §8, §9

human neuroma cells D54 = experiment: MTT growth inhibition, D54 cells; format: cell-based; details: 72 h after treatment, read-out: Drug concentration (IC50) at which 50% cancer cells survived
From the text: as §10, §1, §11, §12, §2, §3, §4, §5, §13, §6

[10] = system: human lung cancer cells H460; experiment: MTT growth inhibition, H460 cells; format: cell-based; details: NCI-H460, 72 h after treatment, read-out: Drug concentration (IC50) at which 50% cancer cells survived
From the text: as §10, §1, §11, §12, §2, §3, §4, §5, §13, §6

[11] = system: human lung cancer cells A549; experiment: MTT growth inhibition, A549 cells; format: cell-based; details: 72 h after treatment, read-out: Drug concentration (IC50) at which 50% cancer cells survived
From the text: as §10, §1, §11, §12, §2, §3, §4, §5, §13, §6

[12] = system: human liver cancer cells HepG2; experiment: MTT growth inhibition, HepG2 cells; format: cell-based; details: 72 h after treatment, read-out: Drug concentration (IC50) at which 50% cancer cells survived
From the text: as §10, §1, §11, §12, §2, §3, §4, §5, §13, §6

[13] = system: human pancreatic cancer cells BxPC3; experiment: MTT growth inhibition, BxPc3 cells; format: cell-based; details: Homo sapiens, BXPC-3, 72 h after treatment, read-out: Drug concentration (IC50) at which 50% cancer cells survived
From the text: as §10, §1, §11, §12, §2, §3, §4, §5, §13, §6

[14] = system: human oral epidermoid cancer cells KBV200; experiment: MTT growth inhibition, KBV200 cells; format: cell-based; details: 72 h after treatment, read-out: Drug concentration (IC50) at which 50% cancer cells survived
From the text: as §10, §1, §11, §12, §2, §3, §4, §5, §13, §6

[15] = system: highly metastatic Lewis lung cancer cell lines; experiment: MTT growth inhibition, LLC cells; format: cell-based, mouse; details: Mus musculus, Lewis lung carcinoma, 72 h after treatment, read-out: Drug concentration (IC50) at which 50% cancer cells survived
From the text: as §10, §1, §11, §12, §2, §3, §4, §5, §13, §6

[16] = system: human gastric cancer cells BGC-823; experiment: MTT growth inhibition, BGC-823 cells; format: cell-based; details: 72 h after treatment, read-out: Drug concentration (IC50) at which 50% cancer cells survived
From the text: as §10, §1, §11, §12, §2, §3, §4, §5, §13, §6

[17] = system: Caski human cervical cancer cells; experiment: MTT growth inhibition, Caski cells; format: cell-based; details: Ca-Ski, 72 h after treatment, read-out: Drug concentration (IC50) at which 50% cancer cells survived
[18] = system: human colon cancer cells HT29; experiment: MTT growth inhibition, HT29 cells; format: cell-based; details: HT-29, 72 h after treatment, read-out: Drug concentration (IC50) at which 50% cancer cells survived
From the text: as §10, §1, §11, §12, §2, §3, §4, §5, §13, §6

[19] = system: human breast cancer cells MDA-MB-231; experiment: MTT growth inhibition, MDA-MB-231 cells; format: cell-based; details: 72 h after treatment, read-out: Drug concentration (IC50) at which 50% cancer cells survived
From the text: as §10, §1, §11, §12, §2, §3, §4, §5, §13, §6

[20] = system: human liver cancer cells SMMC7721; experiment: MTT growth inhibition, SMMC7721 cells; format: cell-based; details: SMMC-7721, S-7721 (SMMC7721), 72 h after treatment, read-out: Drug concentration (IC50) at which 50% cancer cells survived
From the text: as §10, §1, §11, §12, §2, §3, §4, §5, §13, §6

[21] = system: human pancreatic cancer cells PANC-1; experiment: MTT growth inhibition, PANC-1 cells; format: cell-based; details: 72 h after treatment, read-out: Drug concentration (IC50) at which 50% cancer cells survived
From the text: as §10, §1, §11, §12, §2, §3, §4, §5, §13, §6

[22] = system: human chronic leukemia cells K562; experiment: MTT growth inhibition, K562 cells; format: cell-based; details: 72 h after treatment, read-out: Drug concentration (IC50) at which 50% cancer cells survived
From the text: as §10, §1, §11, §12, §2, §3, §4, §5, §13, §6

[23] = system: human prostate cancer cells PC-3; experiment: MTT growth inhibition, PC-3 cells; format: cell-based; details: 72 h after treatment, read-out: Drug concentration (IC50) at which 50% cancer cells survived
From the text: as §10, §1, §11, §12, §2, §3, §4, §5, §13, §6

[24] = system: human breast cancer cells MCF-7; experiment: MTT growth inhibition, MCF-7 cells; format: cell-based; details: MCF7, 72 h after treatment, read-out: Drug concentration (IC50) at which 50% cancer cells survived
From the text: as §10, §1, §11, §12, §2, §3, §4, §5, §13, §6

`N.N.O=C([O-])C1(C(=O)[O-])CCC1.[Pt+2]` [Carboplatin, reference compound] was tested, and the IC50 ([1]; 72 h after treatment) was 58 ± 30 µM.

`N.N.[Cl][Pt][Cl]` [Cisplatin, reference compound] was tested, and the “Curative effect (inhibition rate %) of tumor weight” value (“Curative effect (inhibition rate %)” for short) [2] was “A/61.3% ± 6.7*;”, the IC50 [3] was 1.6 µM and the “Curative effect (inhibition rate %)” value [4] was “A/46.7% ± 6.5*;”. The “Curative effect (inhibition rate %)” value [5] was “A.69.6% ± 7.9;”, the IC50 (mouse melanoma cells B16) was 67 ± 30 µM and the IC50 [6] was 66 µM. For the same compound, the “Curative effect (inhibition rate %)” value [7] was “A.36.6% ± 7.5”, the “Curative effect (inhibition rate %)” value [8] was “A.39.9% ± 7.8;” and the “Curative effect (inhibition rate %)” value [9] was “A/25.3% ± 7.7”. It also gave an IC50 (human neuroma cells D54) of 21 µM.

With `O=C(O)c1cc2ccccc2oc1=O` [Compound IIIa] the IC50 [10] was over 700 µM, the IC50 [11] was over 700 µM and the IC50 [12] was over 700 µM. It also gave an IC50 [13] of over 700 µM, an IC50 [14] of over 700 µM and an IC50 ([3]; Homo sapiens) of over 700 µM. It also gave an IC50 ([1]; Homo sapiens, U-937, 72 h after treatment) of over 700 µM, an IC50 (mouse melanoma cells B16; Mus musculus) of over 700 µM and an IC50 [15] of over 700 µM. For the same compound, the IC50 [16] was over 700 µM, the IC50 ([6]; Homo sapiens) was over 700 µM and the IC50 [17] was over 700 µM. It also gave an IC50 [18] of over 700 µM, an IC50 [19] of over 700 µM and an IC50 [20] of over 500 µM. The IC50 [21] was over 700 µM, the IC50 [22] was over 700 µM and the IC50 [23] was over 500 µM. It also gave an IC50 (human neuroma cells D54; Homo sapiens) of over 700 µM and an IC50 [24] of over 700 µM.
